Laboratory results published in US10888090B2, “Plant growth promoters and methods of using them” (KING ABDULLAH UNIVERSITY OF SCIENCE AND TECHNOLOGY, priority 2015, dated 2021).

Assays:
[1] = tested on: rice seedlings (cultivar 'Dongjin'); experiment: Rice seedlings grown hydroponically with the compound: crown roots and biomass; format: in vivo; details: hydroponic
Protocol: FIG. 10: 3-OH-β-apo-13-Carotenone treatment increases the number of crown roots in rice. Seeds of cultivar ‘Dongjin’ were pre-germinated in water for 2 days followed by transfer to filter papers placed in petri dishes containing half-strength liquid Murashige and Skoog (MS) medium. The cultures were incubated at 24° C. for one week. Thereafter, the seedlings were grown hydroponically in half-strength modified Hoagland nutrient solution containing different concentrations of 3-OH-β-apo-13-carotenone for 2 weeks in the greenhouse. The medium was changed twice a week, data were recorded 2 weeks after treatment. (FIG. 10A) Number of crown roots of rice seedlings 2 weeks after treatment. Each value represents the mean of 10 seedlings. Error bar indicates standard error. Asterisks denote a significant difference from the mock treatment by student t-test (* P<0.05; ** P<0.01). FIG. 11: Root and shoot biomass of rice seedlings treated with 3-OH-β-apo-13-Carotenone. One week-old seedlings of cultivar ‘Dongjin’ were grown hydroponically in half-strength modified Hoagland nutrient solution containing different concentrations of 3-OH-β-apo-13-Carotenone for two weeks in the greenhouse. The medium was changed twice a week. After two weeks, roots and shoots were collected separately and dried in an incubator at 80° C. for 3 days. Dried samples were weighed using a Mettler Toledo balance. […]

[2] = tested on: Arabidopsis (col-0) seedlings; experiment: Hypocotyl-derived adventitious root formation in Arabidopsis seedlings; format: in vivo, Arabidopsis thaliana; details: 2.5 μM; arising after dark-light transition
Excerpt: FIG. 12A: 3-OH-β-apo-13-Carotenone treatment increases the number of hypocotyl-derived adventitious roots in a concentration-dependent manner (14 days old plants). For a better resolution, see FIG. 12B. FIG. 12B: 3-OH-β-apo-13-Carotenone treatment increases the number of hypocotyl-derived adventitious roots. (A) 4-day-old Arabidopsis (col-0) seedlings were transferred to 3-OH-β-apo-13-Carotenone containing plates at the indicated concentrations and grown for 10 days. Red arrows indicate adventitious roots on hypocotyl (B) Average number of adventitious roots. Seeds were germinated on 1 MS medium with 0.5% sucrose (pH 5.7) and grown for 4 days in the dark. Error bars represent means±S.E. Asterisks indicate significant differences as calculated using a standard Student's t-test (*P<0.005, ** <0.001). […] Therefore, we tested whether β-apo-13-carotenone can also induce adventitious root formation in the model plant Arabidopsis thaliana. As shown in FIGS. 12A and 12B, the compound exerted a clear induction on the number of hypocotyl-derived adventitious roots that usually arise spontaneously after dark-light transition. Highest activity—around 50% increase, was obtained with 2.5 μM concentrations (FIGS. 12A and 12B).

[3] = tested on: Leaf explants of 12-day-old seedlings; experiment: Leaf-derived adventitious roots (leaf explants of 12-day-old seedlings); format: in vivo, Arabidopsis thaliana
Excerpt: FIG. 13: 3-OH-β-apo-13-Carotenone treatment increases the number of leaf-derived adventitious roots (Leaf explants of 12-day-old seedlings). […] Therefore, we tested whether β-apo-13-carotenone can also induce adventitious root formation in the model plant Arabidopsis thaliana. As shown in FIGS. 12A and 12B, the compound exerted a clear induction on the number of hypocotyl-derived adventitious roots that usually arise spontaneously after dark-light transition. Highest activity—around 50% increase, was obtained with 2.5 μM concentrations (FIGS. 12A and 12B).

Arabidopsis = experiment: Number of lateral roots in Arabidopsis (14 days old plants); format: in vivo
Protocol: FIG. 14: 3-OH-β-apo-13-Carotenone treatment of Arabidopsis increases the number of lateral roots in a concentration-dependent manner (14 days old plants). 0-5 μM corresponds to different concentrations of synthetic 3-OH-β-apo-13-Carotenone. Puri corresponds to synthetic 3-OH-β-apo-13-Carotenone after HPLC purification. […] Therefore, we tested whether β-apo-13-carotenone can also induce adventitious root formation in the model plant Arabidopsis thaliana. As shown in FIGS. 12A and 12B, the compound exerted a clear induction on the number of hypocotyl-derived adventitious roots that usually arise spontaneously after dark-light transition. Highest activity—around 50% increase, was obtained with 2.5 μM concentrations (FIGS. 12A and 12B). […] To ensure that the biological activity observed is caused by 3-OH-β-apo-13-carotenone and not by a possible contamination with a different compound that may be included during the organic synthesis, HPLC was used to isolate highly pure 3-OH-β-apo-13-carotenone, and the purified compound was applied.

Arabidopsis (Col-0) [4] = experiment: Lateral root density in Arabidopsis, single and combined treatment with auxin; format: in vivo; details: 3-OH-β-apo-13-carotenone 2.5 μM, auxin 100 nM; 9 days
Protocol: FIG. 15: Combined 3-OH-β-apo-13-Carotenone and auxin treatment of Arabidopsis has a synergetic effect on lateral root density. 3-OH-β-apo-13-carotenone and auxin (indole-3-acetic acid) were applied at 2.5 μM and 100 nM, concentrations, respectively. Arabidopsis (Col-0) seeds were germinated in/MS-plates (with 0.5% sucrose) containing individual and both compounds together and grown in 16 light/8 dark period, 22° C. for 9 days. Graph represents both actual density and in percentage. *P<0.05; Student's t test; **P<0.05; Student's t test. Also investigated was possible effect of combining 3-OH-β-apo-13-carotenone with auxin.

Arabidopsis (Col-0) [5] = experiment: Primary root length in Arabidopsis; format: in vivo; details: 2.5 μM, 9 days
Protocol: FIG. 16: 3-OH-β-apo-13-Carotenone treatment of Arabidopsis increases the length of primary root. Arabidopsis (Col-0) seeds were germinated on/MS-plates (with 0.5% sucrose) containing 3-OH-β-apo-13-carotenone and grown in 16 light/8 dark period, 22° C. for 9 days. *P<0.05; Student's t-test; **P<0.05; Student's t test. 3-OH-β-apo-13-carotenone was applied at 2.5 μM concentration. Also investigated was the effect of the compound on primary root length.

Greenhouse experiments = format: in vivo
root hairs = details: at high concentration; cited from earlier work

| Structure (SMILES) | number of crown roots ([1]; micromolar concentrations, 2 weeks after treatment) | increase in root and shoot biomass ([1]; two weeks, dried samples) | increase in number of hypocotyl-derived adventitious roots (highest activity) [2] | number of leaf-derived adventitious roots [3] | number of lateral roots (Arabidopsis; 2.5 μM, synthetic compound) | lateral root number (Arabidopsis; compound after HPLC purification) | increase in lateral root density, single treatment (Arabidopsis (Col-0) [4]) | primary root length (Arabidopsis (Col-0) [5]) | growth and flowering in greenhouse experiments (Greenhouse experiments) | tip growth of root hairs (root hairs) |
| --- | --- | --- | --- | --- | --- | --- | --- | --- | --- | --- |
| CC(=O)/C=C/C=C(C)/C=C/C1=C(C)CC(O)CC1(C)C (stereo not drawn) [3-OH-β-apo-13-carotenone] | obvious increase in the number of crown roots | around 30% | around 50% | noticeable increase (duplication) | clearly increased the number of lateral roots | increase in lateral root number was detected similar to that observed before | around 20% | small but significant increase | growth-promoting effects and early flowering |  |
| O=C(O)Cc1c[nH]c2ccccc12 [auxin, indole-3-acetic acid, reference compound] |  |  |  |  |  |  | ~30% |  |  |  |
| CC(=O)/C=C/C=C(C)/C=C/C1=C(C)CCCC1(C)C [d'orenone, β-apo-13-carotenone] |  |  |  |  |  |  |  |  |  | block tip growth of root hairs |
